In patent US11498899B2, “Nitrone herbicides” (FMC Corporation, priority 2016, dated 2022):

Tests used:
[1] = tested on: barnyardgrass (Echinochloa crus-galli); test: Test A preemergence, visual injury rating 0-100 (0 no effect, 100 complete control); type: in vivo
[2] = tested on: pigweed (Amaranthus retroflexus); test: Test A preemergence, visual injury rating 0-100; type: in vivo
kochia (Kochia scoparia) [3] = test: Test A preemergence, visual injury rating 0-100; type: in vivo
[4] = tested on: ragweed (common ragweed, Ambrosia elatior); test: Test A preemergence, visual injury rating 0-100; type: in vivo
[5] = tested on: ryegrass, Italian (Italian ryegrass, Lolium multiflorum); test: Test A preemergence, visual injury rating 0-100; type: in vivo
[6] = tested on: foxtail, giant (giant foxtail, Setaria faberii); test: Test A preemergence, visual injury rating 0-100; type: in vivo
[7] = tested on: barnyardgrass (Echinochloa crus-galli); test: Test B flooded paddy test, visual rating 0-100; details: Flood, 250 g ai/ha, applied to paddy water, rated after 13 to 15 days
[8] = tested on: galium (catchweed bedstraw, Galium aparine); test: Test A postemergence, visual injury rating 0-100; type: in vivo; details: 0 to 100 scale
corn (Zea mays) = test: Test A postemergence, visual injury rating 0-100; type: in vivo; details: 0 to 100 scale
[9] = tested on: barnyardgrass (Echinochloa crus-galli); test: Test A postemergence, visual injury rating 0-100; type: in vivo; details: 0 to 100 scale
[10] = tested on: pigweed (Amaranthus retroflexus); test: Test A postemergence, visual injury rating 0-100; type: in vivo; details: 0 to 100 scale
kochia (Kochia scoparia) [11] = test: Test A postemergence, visual injury rating 0-100; type: in vivo; details: 0 to 100 scale
[12] = tested on: ragweed (common ragweed, Ambrosia elatior); test: Test A postemergence, visual injury rating 0-100; type: in vivo; details: 0 to 100 scale
[13] = tested on: wheat (Triticum aestivum); test: Test A postemergence, visual injury rating 0-100; type: in vivo; details: 0 to 100 scale
[14] = tested on: blackgrass (Alopecurus myosuroides); test: Test A postemergence, visual injury rating 0-100; type: in vivo; details: 0 to 100 scale
[15] = tested on: ryegrass, Italian (Italian ryegrass, Lolium multiflorum); test: Test A postemergence, visual injury rating 0-100; type: in vivo; details: 0 to 100 scale
[16] = tested on: foxtail, giant (giant foxtail, Setaria faberii); test: Test A postemergence, visual injury rating 0-100; type: in vivo; details: 0 to 100 scale
[17] = tested on: ducksalad (Heteranthera limosa); test: Test B flooded paddy test, visual rating 0-100; details: Flood, 250 g ai/ha, applied to paddy water, rated after 13 to 15 days
rice (Oryza sativa) = test: Test B flooded paddy test, visual rating 0-100 (0 no effect, 100 complete control); details: Flood, 250 g ai/ha, applied to paddy water, rated after 13 to 15 days

| Structure (SMILES) | Barnyardgrass plant response rating (0 to 100 scale) ([1]; 125 g ai/ha) | Barnyardgrass plant response rating (0 to 100 scale) ([1]; 500 g ai/ha) | Pigweed plant response rating (0 to 100 scale) ([2]; 125 g ai/ha) | Pigweed plant response rating (0 to 100 scale) ([2]; 500 g ai/ha) | Kochia plant response rating (0 to 100 scale) (kochia (Kochia scoparia) [3]; 125 g ai/ha) | Kochia plant response rating (0 to 100 scale) (kochia (Kochia scoparia) [3]; 500 g ai/ha) | Ragweed plant response rating (0 to 100 scale) ([4]; 125 g ai/ha) | Ragweed plant response rating (0 to 100 scale) ([4]; 500 g ai/ha) | Ryegrass, Italian plant response rating (0 to 100 scale) ([5]; 125 g ai/ha) | Ryegrass, Italian plant response rating (0 to 100 scale) ([5]; 500 g ai/ha) | Foxtail, Giant plant response rating (0 to 100 scale) ([6]; 125 g ai/ha) | Foxtail, Giant plant response rating (0 to 100 scale) ([6]; 500 g ai/ha) | Barnyardgrass plant response rating (0 to 100 scale) [7] | Galium plant response rating ([8]; 125 g ai/ha) | Galium plant response rating ([8]; 500 g ai/ha) | Corn plant response rating (corn (Zea mays); 125 g ai/ha) | Corn plant response rating (corn (Zea mays); 500 g ai/ha) | Barnyardgrass plant response rating ([9]; 125 g ai/ha) | Barnyardgrass plant response rating ([9]; 500 g ai/ha) | Pigweed plant response rating ([10]; 125 g ai/ha) | also measured |
| --- | --- | --- | --- | --- | --- | --- | --- | --- | --- | --- | --- | --- | --- | --- | --- | --- | --- | --- | --- | --- | --- |
| CC1=[N+]([O-])C(C(=O)Nc2cccc(F)c2F)C(c2cccc(C)c2C)C1 (racemic) [Compound 77] | 90 | 90 | 20 | 70 | 10 | 70 | 30 | 80 | 10 | 90 | 90 | 90 | 75 | 50 | 70 | 50 | 60 | 80 | 90 | 0 | Pigweed plant response rating ([10]; 500 g ai/ha): 20; Kochia plant response rating (kochia (Kochia scoparia) [11]; 125 g ai/ha): 0; Kochia plant response rating (kochia (Kochia scoparia) [11]; 500 g ai/ha): 20; Ragweed plant response rating ([12]; 125 g ai/ha): 20; Ragweed plant response rating ([12]; 500 g ai/ha): 60; Wheat plant response rating ([13]; 125 g ai/ha): 50; Wheat plant response rating ([13]; 500 g ai/ha): 70; Blackgrass plant response rating ([14]; 125 g ai/ha): 60; Blackgrass plant response rating ([14]; 500 g ai/ha): 80; Ryegrass, Italian plant response rating ([15]; 125 g ai/ha): 40; Ryegrass, Italian plant response rating ([15]; 500 g ai/ha): 70; Foxtail, Giant plant response rating ([16]; 125 g ai/ha): 90; Foxtail, Giant plant response rating ([16]; 500 g ai/ha): 90; Ducksalad plant response rating (0 to 100 scale) [17]: 100; Rice plant response rating (0 to 100 scale) (rice (Oryza sativa)): 0 |
| CC1=[N+]([O-])C(C(=O)Nc2cccc(F)c2F)C(c2cccc(F)c2C)C1 (racemic) [Compound 78] | 90 | 90 | 0 | 80 | 10 | 60 | 20 | 70 | 30 | 70 | 90 | 90 | 75 | 60 | 60 | 0 | 50 | 70 | 80 | 0 | Pigweed plant response rating ([10]; 500 g ai/ha): 20; Kochia plant response rating (kochia (Kochia scoparia) [11]; 125 g ai/ha): 20; Kochia plant response rating (kochia (Kochia scoparia) [11]; 500 g ai/ha): 50; Ragweed plant response rating ([12]; 125 g ai/ha): 0; Ragweed plant response rating ([12]; 500 g ai/ha): 60; Wheat plant response rating ([13]; 125 g ai/ha): 40; Wheat plant response rating ([13]; 500 g ai/ha): 60; Blackgrass plant response rating ([14]; 125 g ai/ha): 50; Blackgrass plant response rating ([14]; 500 g ai/ha): 70; Ryegrass, Italian plant response rating ([15]; 125 g ai/ha): 10; Ryegrass, Italian plant response rating ([15]; 500 g ai/ha): 50; Foxtail, Giant plant response rating ([16]; 125 g ai/ha): 80; Foxtail, Giant plant response rating ([16]; 500 g ai/ha): 90; Ducksalad plant response rating (0 to 100 scale) [17]: 100; Rice plant response rating (0 to 100 scale) (rice (Oryza sativa)): 0 |
| CC1=[N+]([O-])C(C(=O)Nc2cccc(F)c2F)C(c2cc(C)ccc2C)C1 (racemic) [Compound 79] | 90 | 90 | 0 | 0 | 0 | 20 | 0 | 0 | 30 | 50 | 80 | 90 | 60 | 20 | 30 | 20 | 70 | 70 | 80 | 0 | Pigweed plant response rating ([10]; 500 g ai/ha): 0; Kochia plant response rating (kochia (Kochia scoparia) [11]; 125 g ai/ha): 0; Kochia plant response rating (kochia (Kochia scoparia) [11]; 500 g ai/ha): 0; Ragweed plant response rating ([12]; 125 g ai/ha): 30; Ragweed plant response rating ([12]; 500 g ai/ha): 30; Wheat plant response rating ([13]; 125 g ai/ha): 20; Wheat plant response rating ([13]; 500 g ai/ha): 70; Blackgrass plant response rating ([14]; 125 g ai/ha): 20; Blackgrass plant response rating ([14]; 500 g ai/ha): 70; Ryegrass, Italian plant response rating ([15]; 125 g ai/ha): 0; Ryegrass, Italian plant response rating ([15]; 500 g ai/ha): 50; Foxtail, Giant plant response rating ([16]; 125 g ai/ha): 70; Foxtail, Giant plant response rating ([16]; 500 g ai/ha): 90; Ducksalad plant response rating (0 to 100 scale) [17]: 100; Rice plant response rating (0 to 100 scale) (rice (Oryza sativa)): 0 |
| CC1=[N+]([O-])C(C(=O)Nc2cccc(F)c2F)C(c2cc(F)ccc2C)C1 (racemic) [Compound 81] | 90 | 90 | 0 | 20 | 0 | 50 | 0 | 0 | 0 | 10 | 60 | 90 | 25 | 0 | 30 | 20 | 20 | 80 | 80 | 0 | Pigweed plant response rating ([10]; 500 g ai/ha): 0; Kochia plant response rating (kochia (Kochia scoparia) [11]; 125 g ai/ha): 0; Kochia plant response rating (kochia (Kochia scoparia) [11]; 500 g ai/ha): 0; Ragweed plant response rating ([12]; 125 g ai/ha): 0; Ragweed plant response rating ([12]; 500 g ai/ha): 0; Wheat plant response rating ([13]; 125 g ai/ha): 0; Wheat plant response rating ([13]; 500 g ai/ha): 30; Blackgrass plant response rating ([14]; 125 g ai/ha): 0; Blackgrass plant response rating ([14]; 500 g ai/ha): 50; Ryegrass, Italian plant response rating ([15]; 125 g ai/ha): 0; Ryegrass, Italian plant response rating ([15]; 500 g ai/ha): 20; Foxtail, Giant plant response rating ([16]; 125 g ai/ha): 60; Foxtail, Giant plant response rating ([16]; 500 g ai/ha): 80; Ducksalad plant response rating (0 to 100 scale) [17]: 100; Rice plant response rating (0 to 100 scale) (rice (Oryza sativa)): 0 |
